In the data set the test system is cucurbit leaf beetle (Aulacophora femoralis). The data set is described as follows: Test Example 10: sprayed cucumber leaves, cucurbit leaf beetle. The conditions noted are these: 50 ppm, spray 10 mL/seedling, 2nd instar larvae, after 5 days. Format: in vivo. As for the experimental part:
Next, Test examples are used to show efficacies of the Present compounds on controlling harmful arthropods. In the following Test examples, the tests were carried out at 25° C.
Each test compound is dissolved into a mixed solution (10 μL) of xylene, DMF, and a surfactant (at a volume ratio of xylene:DMF:surfactant=4:4:1) per 1 mg of the test compound, and water containing a spreader (0.03% by volume) is added thereto to prepare a diluted solution containing a prescribed concentration of each test compound.
Cucumber seedlings (on the developmental stage of the second to third true leaf) are planted in a plastic cup, and each of the diluted solutions is sprayed into the seedlings in the ratio of 10 mL/seedling. Thereafter, the second leaves are cut out and placed into a plastic cup, and 10 heads of the 2nd instar larvae of cucurbit leaf beetle (Aulacophora femoralis) are released into the cup, and the cup is covered with a lid. After 5 days, the number of the dead insects is counted, and the mortality of insects is calculated by the following equation. Mortality (%)=(Number of dead insects/10)×100

Each structure is given as a SMILES string. Bounds are passed on as bounds.

For the compound `CCS(=O)(=O)c1cc(C(F)(F)F)ccc1-c1ncc(OCC(F)(F)C(F)C(F)(F)F)cn1` (racemic) [compound 2], the mortality – broadly, the percentage killed – was not below 80%.

These data come from patent publication US10645929B2, “Pyrimidine compound” (Sumitomo Chemical Company, Limited, priority 2015, dated 2020).
